Data published in ChEMBL document CHEMBL4196245, “Structures and Antimutagenic Effects of Onoceranoid-Type Triterpenoids from the Leaves of Lansium domesticum” (2018).
Activity calls are given as the source filed them. The rule behind the calls is not given here.

Key:
Salmonella typhimurium [1] = experiment: Antimutagenic activity against Salmonella typhimurium TA98 assessed as inhibition of Trp-P-1-induced mutation at 100 nmol/plate measured in presence of S9 fraction by Ames test relative to control; assay type: functional, Salmonella enterica subsp. enterica serovar Typhimurium
Salmonella typhimurium [2] = experiment: Antimutagenic activity against Salmonella typhimurium TA98 assessed as inhibition of Trp-P-1-induced mutation at 80 nmol/plate measured in presence of S9 fraction by Ames test relative to control; assay type: functional, Salmonella enterica subsp. enterica serovar Typhimurium
Mus musculus = organism: Mus musculus; experiment: Antimutagenic activity against PhIP-induced mutation in ICR mouse assessed as reduction in micronucleated reticulocytes at 0.03 to 0.06% w/w treated prior to PhIP addition measured 24 to 48 hrs post dose by fluorescence microscopic analysis; assay type: functional, organism-based

| SMILES | inhibition (INH) (Salmonella typhimurium [1]) | also measured |
| --- | --- | --- |
| C=C(C)[C@@H]1CC=C(C)[C@H](CC[C@H]2C(=C)CC[C@H]3C(C)(C)[C@@H](O)CC[C@]23C)[C@@]1(C)CCC(=O)OCC [ETHYL LANSIOLATE] | 7.9% |  |
| C=C(C)[C@@H]1CC=C(C)[C@H](CC[C@H]2C(=C)CC[C@H]3C(C)(C)[C@@H](O)CC[C@]23C)[C@@]1(C)CCC(=O)O | 73.8% |  |
| C=C(C)[C@@H]1CC=C(C)[C@H](CC[C@H]2C(=C)CC[C@H]3C(C)(C)[C@@H](O)CC[C@]23C)[C@@]1(C)CCC(=O)OC | 29.5% |  |
| COc1ccc(-c2cc(=O)c3c(OC)c(OC)c(OC)c(OC)c3o2)cc1OC [NOBILETIN] |  | inhibition (INH) (Salmonella typhimurium [2]): 56% |
| C=C(C)[C@@H]1CC=C(C)[C@H](CC[C@H]2C(=C)CC[C@H]3C(C)(C)C(=O)CC[C@]23C)[C@@]1(C)CCC(=O)O |  | Activity (Mus musculus): Active |
